Experimental data from PubChem BioAssay (NCI).
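Growth conditions: 96-well plates. Treatment: test compound, 48 hours, 5 concentrations. Analysis: linear interpolation between bracketing concentrations; unreached endpoints set to highest concentration. GI50 marks 50% less growth. TGI denotes the concentration required for complete inhibition of growth.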

Key:
Experiment in all cases: DTP human tumour cell line panel, 48 h; in the data active means GI50 below about 0.43 µM; inactive means the rest
786-0 renal = system: 786-0 renal
A498 renal = system: A498 renal
A549 NSCLC = system: A549 NSCLC
ACHN renal = system: ACHN renal
BT-549 breast = system: BT-549 breast
CAKI-1 renal = system: CAKI-1 renal
CCRF-CEM leukemia = system: CCRF-CEM leukemia
COLO 205 colon = system: COLO 205 colon
DU-145 prostate = system: DU-145 prostate
EKVX NSCLC = system: EKVX NSCLC
HCC-2998 colon = system: HCC-2998 colon
HCT-116 colon = system: HCT-116 colon
HCT-15 colon = system: HCT-15 colon
HL-60(TB) leukemia = system: HL-60(TB) leukemia
HOP-62 NSCLC = system: HOP-62 NSCLC
HOP-92 NSCLC = system: HOP-92 NSCLC
HS 578T breast = system: HS 578T breast
HT29 colon = system: HT29 colon
IGROV1 ovarian = system: IGROV1 ovarian
K-562 leukemia = system: K-562 leukemia
KM12 colon = system: KM12 colon
LOX IMVI melanoma = system: LOX IMVI melanoma
M14 melanoma = system: M14 melanoma
MALME-3M melanoma = system: MALME-3M melanoma
MCF7 breast = system: MCF7 breast
MDA-MB-231 breast = system: MDA-MB-231 breast
MDA-MB-435 = system: MDA-MB-435
MOLT-4 leukemia = system: MOLT-4 leukemia
NCI-H226 lung = system: NCI-H226 lung
NCI-H460 lung = system: NCI-H460 lung
NCI-H522 lung = system: NCI-H522 lung
NCI/ADR-RES ovarian = system: NCI/ADR-RES ovarian
OVCAR-3 ovarian = system: OVCAR-3 ovarian
OVCAR-4 ovarian = system: OVCAR-4 ovarian
OVCAR-5 ovarian = system: OVCAR-5 ovarian
OVCAR-8 ovarian = system: OVCAR-8 ovarian
PC-3 prostate = system: PC-3 prostate
RPMI-8226 leukemia = system: RPMI-8226 leukemia
RXF 393 renal = system: RXF 393 renal
SF-268 CNS = system: SF-268 CNS
SF-295 CNS = system: SF-295 CNS
SF-539 CNS = system: SF-539 CNS
SK-MEL-2 melanoma = system: SK-MEL-2 melanoma
SK-MEL-28 melanoma = system: SK-MEL-28 melanoma
SK-MEL-5 melanoma = system: SK-MEL-5 melanoma
SK-OV-3 ovarian = system: SK-OV-3 ovarian
SN12C renal = system: SN12C renal
SNB-19 CNS = system: SNB-19 CNS
SNB-75 CNS = system: SNB-75 CNS
SR leukemia = system: SR leukemia
SW-620 colon = system: SW-620 colon
T-47D breast = system: T-47D breast
TK-10 renal = system: TK-10 renal
U251 CNS = system: U251 CNS
UACC-257 melanoma = system: UACC-257 melanoma
UACC-62 melanoma = system: UACC-62 melanoma
UO-31 renal = system: UO-31 renal

CCNC(=O)N1CCc2cc(OC)c(OCCc3ccc(OC)cc3)cc2C1c1ccc(OC)cc1C (stereo unspecified)
2690 nM: TGI (SR leukemia)
7.23 µM: TGI (MDA-MB-435)
> 27.2 µM: TGI (SNB-75 CNS)
inactive: GI50 (786-0 renal) 715 nM | GI50 (A549 NSCLC) 1390 nM | GI50 (ACHN renal) 755 nM | GI50 (BT-549 breast) 1360 nM | GI50 (CAKI-1 renal) 1150 nM | GI50 (CCRF-CEM leukemia) 432 nM | GI50 (COLO 205 colon) 1070 nM | GI50 (DU-145 prostate) 1330 nM | GI50 (EKVX NSCLC) 5.64 µM | GI50 (HCC-2998 colon) 1950 nM | GI50 (HL-60(TB) leukemia) 583 nM | GI50 (HOP-62 NSCLC) 1590 nM | GI50 (HOP-92 NSCLC) 3.91 µM | GI50 (HS 578T breast) 1660 nM | GI50 (HT29 colon) 694 nM | GI50 (IGROV1 ovarian) 755 nM | GI50 (KM12 colon) 1120 nM | GI50 (M14 melanoma) 1240 nM | GI50 (MALME-3M melanoma) 12.2 µM | GI50 (MCF7 breast) 528 nM | GI50 (MDA-MB-231 breast) 1040 nM | GI50 (MDA-MB-435) 770 nM | GI50 (NCI-H226 lung) 2720 nM | GI50 (NCI-H522 lung) 698 nM | GI50 (NCI/ADR-RES ovarian) 871 nM | GI50 (OVCAR-3 ovarian) 1960 nM | GI50 (OVCAR-4 ovarian) 3.73 µM | GI50 (OVCAR-5 ovarian) 2350 nM | GI50 (OVCAR-8 ovarian) 821 nM | GI50 (PC-3 prostate) 489 nM | GI50 (RPMI-8226 leukemia) 486 nM | GI50 (RXF 393 renal) 1510 nM | GI50 (SF-268 CNS) 1320 nM | GI50 (SF-295 CNS) 875 nM | GI50 (SF-539 CNS) 572 nM | GI50 (SK-MEL-2 melanoma) 3.8 µM | GI50 (SK-MEL-28 melanoma) 1410 nM | GI50 (SK-MEL-5 melanoma) 741 nM | GI50 (SK-OV-3 ovarian) 5.44 µM | GI50 (SN12C renal) 1530 nM | GI50 (SNB-19 CNS) 1160 nM | GI50 (SNB-75 CNS) 893 nM | GI50 (SW-620 colon) 741 nM | GI50 (T-47D breast) 2960 nM | GI50 (TK-10 renal) 5.95 µM | GI50 (U251 CNS) 557 nM | GI50 (UACC-257 melanoma) 6.66 µM | GI50 (UACC-62 melanoma) 644 nM | GI50 (UO-31 renal) 1450 nM
5.72 µM: TGI (SF-539 CNS)
4.89 µM: TGI (RPMI-8226 leukemia)
> 22.2 µM: TGI (A498 renal)
4.19 µM: TGI (RXF 393 renal)
> 29.7 µM: TGI (SK-MEL-2 melanoma)
active: GI50 (HCT-116 colon) 232 nM | GI50 (HCT-15 colon) 168 nM | GI50 (K-562 leukemia) 242 nM | GI50 (LOX IMVI melanoma) 300 nM | GI50 (MOLT-4 leukemia) 314 nM | GI50 (NCI-H460 lung) 288 nM | GI50 (SR leukemia) 151 nM
5.23 µM: TGI (HL-60(TB) leukemia)
> 30 µM: TGI (NCI/ADR-RES ovarian)
> 53.8 µM: TGI (NCI-H226 lung)
> 100 µM: TGI (786-0 renal) | TGI (A549 NSCLC) | TGI (ACHN renal) | TGI (CAKI-1 renal) | TGI (CCRF-CEM leukemia) | TGI (COLO 205 colon) | TGI (DU-145 prostate) | TGI (EKVX NSCLC) | TGI (HCC-2998 colon) | TGI (HCT-116 colon) | TGI (HCT-15 colon) | TGI (HOP-62 NSCLC) | TGI (HOP-92 NSCLC) | TGI (IGROV1 ovarian) | TGI (K-562 leukemia) | TGI (KM12 colon) | TGI (M14 melanoma) | TGI (MALME-3M melanoma) | TGI (MCF7 breast) | TGI (MDA-MB-231 breast) | TGI (MOLT-4 leukemia) | TGI (OVCAR-3 ovarian) | TGI (OVCAR-4 ovarian) | TGI (OVCAR-5 ovarian) | TGI (OVCAR-8 ovarian) | TGI (PC-3 prostate) | TGI (SF-268 CNS) | TGI (SK-MEL-28 melanoma) | TGI (SK-OV-3 ovarian) | TGI (SN12C renal) | TGI (SNB-19 CNS) | TGI (SW-620 colon) | TGI (T-47D breast) | TGI (TK-10 renal) | TGI (U251 CNS) | TGI (UACC-257 melanoma) | TGI (UACC-62 melanoma) | TGI (UO-31 renal)
> 32.9 µM: TGI (NCI-H460 lung)
3.34 µM: TGI (NCI-H522 lung)
3.16 µM: TGI (SK-MEL-5 melanoma)
> 31.1 µM: TGI (HS 578T breast)
9.66 µM: TGI (HT29 colon)
> 37.5 µM: TGI (SF-295 CNS)
